The text below walks through data of patent US20250171431A1, “HETEROCYCLIC INHIBITORS OF IGF-1R FOR TREATMENT OF DISEASE” (HORIZON THERAPEUTICS IRELAND DAC, priority 2023, published 2025).

Structures are written as SMILES.

For this assay, the target named is IGF-1R (Homo sapiens (Human), UniProt P08069). Kind of assay: Example B-1: IGF-1R Assay (PC3 cells, IGF1 stimulation, AlphaLISA). It is filed as cell-based. The conditions noted are these: 200 ng/mL IGF1 stimulation, read-out: Biological Activity against IGF-1R IC50. Summed up: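 Readout is AlphaLISA signal from lysed PC3 cells, expressed as % inhibition versus vehicle and EC80 controls and banded by IC50. Before lysis, the cells were starved of serum for 2 h, exposed to 3× serially diluted compound for 2 h, and stimulated for 30 min with 200 ng/mL IGF1 (final).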
Chain of IGF-1R (P08069 31-1367): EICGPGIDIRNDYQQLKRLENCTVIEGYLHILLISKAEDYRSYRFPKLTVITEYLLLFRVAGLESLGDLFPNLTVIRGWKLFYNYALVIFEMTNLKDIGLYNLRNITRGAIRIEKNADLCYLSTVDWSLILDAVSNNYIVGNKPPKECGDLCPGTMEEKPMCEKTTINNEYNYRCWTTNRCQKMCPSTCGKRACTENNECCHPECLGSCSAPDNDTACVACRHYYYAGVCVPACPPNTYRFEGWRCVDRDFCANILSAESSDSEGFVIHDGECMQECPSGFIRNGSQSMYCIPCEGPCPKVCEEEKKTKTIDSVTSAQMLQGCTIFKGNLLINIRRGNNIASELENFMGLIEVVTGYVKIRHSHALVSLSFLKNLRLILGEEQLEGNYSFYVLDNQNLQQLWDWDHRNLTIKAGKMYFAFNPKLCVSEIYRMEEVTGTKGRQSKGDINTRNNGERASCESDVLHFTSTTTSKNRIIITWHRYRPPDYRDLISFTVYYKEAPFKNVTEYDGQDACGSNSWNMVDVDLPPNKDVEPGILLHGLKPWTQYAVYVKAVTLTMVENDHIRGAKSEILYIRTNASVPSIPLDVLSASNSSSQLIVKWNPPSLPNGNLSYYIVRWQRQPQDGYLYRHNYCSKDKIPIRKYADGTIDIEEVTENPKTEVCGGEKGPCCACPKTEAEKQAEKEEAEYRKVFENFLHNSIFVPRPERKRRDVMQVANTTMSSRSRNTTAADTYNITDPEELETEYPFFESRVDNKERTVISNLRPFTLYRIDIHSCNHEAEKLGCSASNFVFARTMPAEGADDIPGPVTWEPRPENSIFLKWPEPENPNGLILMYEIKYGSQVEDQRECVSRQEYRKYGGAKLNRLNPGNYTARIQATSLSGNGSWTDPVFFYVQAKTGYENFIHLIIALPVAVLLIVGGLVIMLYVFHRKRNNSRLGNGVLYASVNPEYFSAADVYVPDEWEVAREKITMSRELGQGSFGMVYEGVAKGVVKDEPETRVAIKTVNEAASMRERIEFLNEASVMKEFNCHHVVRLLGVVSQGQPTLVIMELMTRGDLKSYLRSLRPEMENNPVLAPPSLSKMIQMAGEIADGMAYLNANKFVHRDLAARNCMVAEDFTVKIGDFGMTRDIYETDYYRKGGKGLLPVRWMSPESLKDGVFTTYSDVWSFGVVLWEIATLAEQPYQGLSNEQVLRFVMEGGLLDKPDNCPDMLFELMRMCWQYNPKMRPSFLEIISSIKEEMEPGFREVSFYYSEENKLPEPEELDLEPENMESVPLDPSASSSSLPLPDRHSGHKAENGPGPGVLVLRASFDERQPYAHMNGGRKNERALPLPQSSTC
(Bead proximity is the source of the signal in Alpha formats.)

As usually defined, the IC50 is the concentration needed to halve the response being measured.

On to `COc1cc(Nc2nccc(Nc3cc4cccc(F)c4[nH]c3=O)n2)cnc1N1CCNC(C(F)F)C1` (stereo not shown) [Compound 233, 3-(2-{6-[3-(difluoromethyl)-1-piperazinyl]-5-methoxy-3-pyridylamino}-4-pyrimidinylamino)-8-fluoro-1,2-dihydro-2-quinolinone], for which the IC50 was no more than 500 nM.
Next, `CN(C)CC1COc2cc(Nc3nccc(Nc4cc5cccc(F)c5[nH]c4=O)n3)ccc2O1` (stereo not shown) [Compound 205, 3-(2-{2-[(dimethylamino)methyl]-2,3-dihydro-1,4-benzodioxin-6-ylamino}-4-pyrimidinylamino)-8-fluoro-1,2-dihydro-2-quinolinone]: no more than 500 nM; `COc1cc(Nc2nccc(Nc3cnc4[nH]c(C)cc4c3)n2)ccc1O[C@H]1C[C@@H](N(C)C)C1` [Compound 283, 2-{3-methoxy-4-[(1s,3s)-3-(dimethylamino)cyclobutoxy]phenylamino}-4-(2-methyl-1H-1,7-diazainden-5-ylamino)pyrimidine]: no more than 500 nM.
The figure for `COc1cc(Nc2nccc(Nc3cnc4[nH]ccc4c3)n2)ccc1OCCCN1CCCCC1` [Compound 381, 4-(1H-1,7-diazainden-5-ylamino)-2-[3-methoxy-4-(3-piperidinopropoxy)phenylamino]pyrimidine] is no more than 500 nM.
The figure for `CN(C)[C@H]1C[C@H](Oc2ccc(Nc3nccc(Nc4cnc5ccc(Br)cc5c4)n3)cc2)C1` [Compound 320, 4-(6-bromo-3-quinolylamino)-2-{p-[(1r,3r)-3-(dimethylamino)cyclobutoxy]phenylamino}pyrimidine] is no more than 500 nM; for `COc1cc(N2CCN(CC#N)CC2)ncc1Nc1ncc(F)c(Nc2cc3ccccc3nc2C(N)=O)n1` [Compound 493, 3-(2-{6-[4-(cyanomethyl)-1-piperazinyl]-4-methoxy-3-pyridylamino}-5-fluoro-4-pyrimidinylamino)-2-quinolinecarboxamide] it is no more than 500 nM; for `COc1cc(Nc2nccc(Nc3cnc4c(c3)SCCC4)n2)ccc1O[C@H]1C[C@@H](N(C)C)C1` [Compound 366, 4-(3,4-dihydro-2H-1-thia-5-azanaphth-7-ylamino)-2-{3-methoxy-4-[(1s,3s)-3-(dimethylamino)cyclobutoxy]phenylamino}pyrimidine] it is no more than 500 nM.
Take `COc1cc(Nc2nccc(Nc3cnc4ccc(Cl)cc4c3)n2)cnc1O[C@@H]1C[C@H](N(C)C)C1(C)C` [Compound 258, 2-{6-[(1R,3S)-3-(dimethylamino)-2,2-dimethylcyclobutoxy]-5-methoxy-3-pyridylamino}-4-(6-chloro-3-quinolylamino)pyrimidine]: the half-inhibitory concentration (IC50) is no more than 500 nM.
Next, `COc1nc(N2CCN(C)CC2)ccc1Nc1nccc(Nc2cnc3ccc(Cl)cc3c2)n1` [Compound 485, 4-(6-chloro-3-quinolylamino)-2-[2-methoxy-6-(4-methyl-1-piperazinyl)-3-pyridylamino]pyrimidine]: no more than 500 nM.
The figure for `COc1cc(Nc2nccc(Nc3cnc4cccc(F)c4c3)n2)ccc1OCCCN1CCCCC1` [Compound 423, 4-(5-fluoro-3-quinolylamino)-2-[3-methoxy-4-(3-piperidinopropoxy)phenylamino]pyrimidine] is no more than 500 nM; for `COc1cc(Nc2nccc(Nc3cnc4c(c3)CCCCC4)n2)ccc1OCCCN1CCCCC1` [Compound 57, 4-{8-azabicyclo[5.4.0]undeca-1(11),7,9-trien-10-ylamino}-2-[3-methoxy-4-(3-piperidinopropoxy)phenylamino] pyrimidine] it is no more than 500 nM.
As to `CN1[C@@H]2COC[C@H]1C[C@@H](Oc1ccc(Nc3nccc(Nc4cnc5ccccc5c4)n3)cc1)C2` [Compound 29, 2-(p-{(1R,5S,7r)-9-methyl-3-oxa-9-azabicyclo[3.3.1]non-7-yloxy}phenylamino)-4-(3-quinolylamino)pyrimidine], the concentration for half-maximal inhibition (IC50) is no more than 500 nM.
The figure for `COc1cc(Nc2nccc(Nc3cnc4c(c3)OC(CN(C)C)CO4)n2)ccc1O[C@H]1C[C@@H](N(C)C)C1` (stereo partly shown) [Compound 259, 4-{2-[(dimethylamino)methyl]-2,3-dihydro-1,4-dioxa-5-aza-7-naphthylamino}-2-{3-methoxy-4-[(1s,3s)-3-(dimethylamino)cyclobutoxy]phenylamino}pyrimidine] is no more than 500 nM; for `COc1cc(Nc2nccc(Nc3cnc4ccc(Cl)cc4c3)n2)ccc1O[C@H]1C[C@H](N2CCOCC2)C1` [Compound 361, 4-(6-chloro-3-quinolylamino)-2-{3-methoxy-4-[(1r,3r)-3-morpholinocyclobutoxy]phenylamino}pyrimidine] it is no more than 500 nM.
Next, `COc1cc(Nc2nccc(Nc3cc4cccc(F)c4[nH]c3=O)n2)cnc1N1CCOCC1` [Compound 241, 8-fluoro-3-[2-(5-methoxy-6-morpholino-3-pyridylamino)-4-pyrimidinylamino]-1,2-dihydro-2-quinolinone]: no more than 500 nM; `COc1cc(Nc2nccc(Nc3cnc4c(c3)O[C@@H]3CCCC[C@@H]3O4)n2)ccc1O[C@H]1C[C@@H](N(C)C)C1` [Compound 190, 4-[(8aS,10aR)-5,6,7,8,8a, 10a-hexahydro-9,10-dioxa-1-aza-3-anthrylamino]-2-{3-methoxy-4-[(1s,3S)-3-(dimethylamino)cyclobutoxy]phenylamino}pyrimidine]: no more than 500 nM.
For the compound `COc1ccc2cc(Nc3ccnc(Nc4ccc(O[C@H]5C[C@H]6COC[C@@H](C5)N6C)cc4)n3)cnc2c1` [Compound 346, 2-(p-{(1R,5S,7r)-9-methyl-3-oxa-9-azabicyclo[3.3.1]non-7-yloxy}phenylamino)-4-(7-methoxy-3-quinolylamino)pyrimidine], the IC50 was in the range of 500 to 2000 nM.
As to `C[C@@H]1COc2ncc(Nc3ccnc(Nc4ccc(OCCCN5CCOCC5)cc4)n3)cc2O1` [Compound 105, 4-[(R)-2-methyl-2,3-dihydro-1,4-dioxa-5-aza-7-naphthylamino]-2-[p-(3-morpholinopropoxy)phenylamino]pyrimidine], the IC50 was no more than 500 nM.
The figure for `COc1cc(Nc2nccc(Nc3cnc4c(c3)OCCO4)n2)cc(C#N)c1O[C@H]1C[C@H](N(C)C)C1` [Compound 44, 5-[4-(2,3-dihydro-1,4-dioxa-5-aza-7-naphthylamino)-2-pyrimidinylamino]-3-methoxy-2-[(1r,3r)-3-(dimethylamino)cyclobutoxy] benzonitrile] is no more than 500 nM.
Take `COc1cc(Nc2nccc(Nc3cnc4c(c3)COCC4)n2)ccc1OCCCN1CCCCC1` [Compound 53, 4-(7,8-dihydro-5H-6-oxa-1-azanaphth-3-ylamino)-2-[3-methoxy-4-(3-piperidinopropoxy)phenylamino] pyrimidine]: the IC50 was no more than 500 nM.
Next, `COc1cc(Nc2nccc(Nc3cnc4ccc(O)cc4c3)n2)ccc1O[C@H]1C[C@H](N(C)C)C1` [Compound 330, 3-(2-{3-methoxy-4-[(1r,3r)-3-(dimethylamino)cyclobutoxy]phenylamino}-4-pyrimidinylamino)-6-quinolinol]: no more than 500 nM; `COc1nc(N2CCC(O)(C(F)(F)F)CC2)ccc1Nc1nccc(Nc2cc3cccc(F)c3[nH]c2=O)n1` [Compound 227, 8-fluoro-3-(2-{6-[4-hydroxy-4-(trifluoromethyl)-1-piperidyl]-2-methoxy-3-pyridylamino}-4-pyrimidinylamino)-1,2-dihydro-2-quinolinone]: no more than 500 nM; `COc1cc(Nc2nccc(Nc3cnc4cc(NC(C)=O)ccc4c3)n2)ccc1O[C@H]1C[C@@H](N(C)C)C1` [Compound 9, N-[3-(2-{3-methoxy-4-[(1s,3s)-3-(dimethylamino)cyclobutoxy]phenylamino}-4-pyrimidinylamino)-7-quinolyl]acetamide]: no more than 500 nM.
The figure for `COc1cc(Nc2ncc(F)c(Nc3cc4ccccc4nc3C(N)=O)n2)cnc1N1CCC(C)(O)CC1` [Compound 491, 3-{5-fluoro-2-[6-(4-hydroxy-4-methyl-1-piperidyl)-5-methoxy-3-pyridylamino]-4-pyrimidinylamino}-2-quinolinecarboxamide] is no more than 500 nM; for `CN(C)[C@H]1CC[C@@H](Oc2ccc(Nc3nccc(Nc4cnc5ccc(Cl)cc5c4)n3)cc2)CC1` [Compound 310, 4-(6-chloro-3-quinolylamino)-2-{p-[(1s,4s)-4-(dimethylamino)cyclohexyloxy]phenylamino}pyrimidine] it is no more than 500 nM.
Next, `COc1cc(Nc2nccc(Nc3cnc4ccccc4c3)n2)ccc1OCCCN1CCOCC1` [Compound 14, 2-[3-methoxy-4-(3-morpholinopropoxy)phenylamino]-4-(3-quinolylamino)pyrimidine]: no more than 500 nM; `COc1cc(Nc2nccc(Nc3cnc4c(c3)C3CCC(C4)C3)n2)ccc1OCCCN1CCCCC1` (stereo not shown) [Compound 70, 4-{6-azatricyclo[7.2.1.0^2,7]dodeca-2(7),3,5-trien-4-ylamino}-2-[3-methoxy-4-(3-piperidinopropoxy)phenylamino] pyrimidine]: no more than 500 nM; `COc1cc(Nc2nccc(Nc3cnc4c(Cl)cccc4c3)n2)ccc1O[C@H]1CC[C@@H](N(C)C)CC1` [Compound 332, 4-(8-chloro-3-quinolylamino)-2-{3-methoxy-4-[(1s,4s)-4-(dimethylamino)cyclohexyloxy]phenylamino}pyrimidine]: no more than 500 nM.
Take `COc1cc(Nc2nccc(Nc3cc(F)c4ncccc4c3)n2)ccc1OCCCN1CCCCC1` [Compound 447, 4-(8-fluoro-6-quinolylamino)-2-[3-methoxy-4-(3-piperidinopropoxy)phenylamino] pyrimidine]: the IC50 was no more than 500 nM.
As for `COc1cc(Nc2nccc(Nc3cnc4ccc(C(F)(F)F)cc4c3)n2)ccc1OCCCN1CCOCC1` [Compound 419, 2-[3-methoxy-4-(3-morpholinopropoxy)phenylamino]-4-[6-(trifluoromethyl)-3-quinolylamino]pyrimidine], the IC50 was no more than 500 nM.
In the case of `COc1cc(Nc2nccc(Nc3cnc4cc(C)ccc4c3)n2)ccc1O[C@H]1C[C@H](N(C)C)C1` [Compound 336, 2-{3-methoxy-4-[(1r,3r)-3-(dimethylamino)cyclobutoxy]phenylamino}-4-(7-methyl-3-quinolylamino)pyrimidine], the IC50 is no more than 500 nM.
